Assay results taken from patent publication US20040157818A1, “Cxcr4-antagonistic drugs composed of nitrogen-containing compound” (priority 2001, published 2004).

Columns and labels:
[1] = biological target: T1, CXCR4 (Homo sapiens, UniProt P61073); test: CXCR4-binding inhibition activity (125I-SDF-1α binding to MT-4 cells); conditions: 0.1 μM test material, ligand 125I-SDF-1α, 2 hours under ice cold condition
T1 construct: endogenous in cells; host or cells: MT-4 cells
Description: CXCR4-Binding Inhibition Activity
MT-4 cells (5×10^6/0.2 ml/well) were cultured on a 24-well microtiter plate. After the cells were incubated for 24 hours at 37° C. in a carbon dioxide gas incubator, a culture mediumwas replaced with a buffer solution (RPMI-1640 containing 0.1% BSA). Together with a ligand ^125I-SDF-1α (specific activity: 2,2000 Ci/mmol; DAIICHI PURE CHEMICALS CO. ,LTD. (Tokyo)), various concentrations of test materials were subjected to a binding reaction for 2 hours under ice cold condition.

[2] = tested on: ICR mice; test: Acute toxicity in ICR mice; assay type: in vivo; conditions: 50 mg/kg intraperitoneally twice a day for 4 days; dead mice after 5 days; male ICR mice, three animals per group
Description: The CXCR4-antagonist or the salt thereof of the present invention is intraperitoneally injected in to an ICR mouse ([…]) twice a day for 4 consecutive days, and no lethal case was found after 5 days. Therefore, the conclusion can be drawn that there is no acute toxicity.
7-week old ICR mice (male) (obtained from Charls River Japan Inc) were divided into three-animals for each groups. After domestication-breeding for 1 week, the compound of the coresponding Synthesis Example was dissolved in a physiological salt solution or distilled water and the solution was then intraperitoneally dosed twice a day for 4 days (50 mg/kg in dosage).

[3] = tested on: type-II collagen-induced arthritis mouse; test: Drug efficacy test on type-II collagen-induced arthritis (CIA) mouse; assay type: in vivo
Description: Drug Efficacy Test of the Compound No. 86 on Type-II Collagen-Induced Arthritis Mouse
Using the type-II collagen-induced mouse arthritis (CIA) model, which was a model of articular rheumatism (RA), the compound No. 86 was tested for drug efficacy.
24 of 6-week-oldmale DBA/l mice (obtained from Charles River Japan, Inc.) were used as test animal and were divided in groups of 12 animals, that is, a test group of and a control group, such that the average weights of the respective groups were almost equal to each other.
An initial-sensitizing antigen solution used was a liquid of adjusted emulsion prepared by dissolving chicken type-II collagen (obtained from Collagen Gijyutu Kensyuukai) in 0.01N acetic acid (4mg/mL) andthenmixingwith an equal amount of Freund's complete adjuvant (manufactured by Difco BRL), and an additional-sensitizing antigen solution used was a liquid of emulsion prepared by dissolving chicken type-II collagen in 0.01N acetic acid (8 mg/mL), and then mixing with an equal amount of Freund's complete adjuvant.
An initial sensitization was performed by endodermic injection of 50 μl of the initial-sensitizing antigen solution (containing 100 μg of chicken type-II collagen) into the tail of the mouse. The additional sensitization was performed after 21 days from the initial sensitization by endodermic injection of 50 μl of the additional-sensitizing antigen solution (containing 200 μg of chicken type-II collagen) into the tail of the mouse.
The compound No. 86, which was provided as a test material, was provided as one at a concentration of 5 mg/mL prepared by dissolving ditartrate thereof in a physiological saline solution. The test material was administered such that the test material was interperitoneally administered once a day for consecutive 17 days from 2 days before the additional sensitization (an amount of administered liquid was 10 mL/kg). In addition, for the control group, the test material was administered by dissolving ditartrate in a physiological saline solution so as to make the concentration of tartaric acid of 1.7 mg/mL because a dosage solvent is ditartrate for the test material compound No. 86.
Amacroscopic observation on extremities after the additional sensitization was performed once a day. A scoring of the macroscopic observation was according to the following criteria and judged on each of extremities with respect to edema of foot. The total of the scores of extremities was provided as an index of the onset of symptoms and pharmacometrics with respect to arthritis. In addition, the total of the numbers of fingers of each extremity on which edema was observed was also used as an index of pharmacometrics.
In addition, the scores in FIG. 6 were defined as follows: […]

T1 sequence (P61073 whole entry): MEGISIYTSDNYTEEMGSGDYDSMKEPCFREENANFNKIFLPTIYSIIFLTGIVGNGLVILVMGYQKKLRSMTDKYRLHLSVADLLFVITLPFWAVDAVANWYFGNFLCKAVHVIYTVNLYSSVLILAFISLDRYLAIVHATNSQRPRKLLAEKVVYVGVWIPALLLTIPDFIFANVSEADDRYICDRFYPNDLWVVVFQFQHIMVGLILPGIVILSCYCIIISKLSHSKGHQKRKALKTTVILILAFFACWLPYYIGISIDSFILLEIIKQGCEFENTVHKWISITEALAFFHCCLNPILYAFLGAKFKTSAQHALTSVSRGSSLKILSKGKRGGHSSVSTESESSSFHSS

Row | Structure (SMILES) | inhibition rate (binding-inhibition % at 0.1 μM) [1] | Number of dead mice [2] | lesion score of extremities (arthritis score) ([3]; 5 mg/mL, 10 mL/kg intraperitoneally once a day for 17 days from 2 days before additional sensitization, observed 12 days after additional sensitization, vs control group) | change in animal body weights ([3]; 5 mg/mL, 10 mL/kg intraperitoneally once a day for 17 days, CIA mice) | number of edematous fingers (chronological increase) ([3]; 5 mg/mL, 10 mL/kg intraperitoneally once a day for 17 days, observed 12 days after additional sensitization, vs control group) | increase in number of edematous fingers ([3]; after 12 days from the additional sensitization, vs control group)
1 | C[C@H](NC(=O)[C@H](CCCNC(=N)N)NC(=O)c1ccc(CNCc2ccccn2)c2ccccc12)c1cccc2ccccc12 [Compound No. 99, N^α-(4-(N-2-picolylaminomethyl)naphthoyl)-L-arginine(1′S)-1′-(1-naphthyl)ethylamide] | 76.4% | 0/3 | – | – | – | –
2 | Cn1ccnc1CNCc1ccc(C(=O)N[C@@H](CCCNC2CCCc3cccnc32)C(=O)NCc2cccc3ccccc23)cc1 (stereo partly drawn) [Compound No. 96, (2S)-2-((1-methylimidazol-2-ylmethyl)aminomethyl) benzoylamino-5-(5,6,7,8-tetrahydroquinolyl-8-yl)amino valerate 1-naphthalene methyleneamide] | 96.8% | 0/3 | – | – | – | –
3 | C[C@H](NC(=O)[C@H](CCCNC1CCCc2cccnc21)NC(=O)c1ccc(CNCc2ncc[nH]2)cc1)c1cccc2ccccc12 (some centres unmarked) [Compound No. 106] | 100.0% | 0/3 | – | – | – | –
4 | O=C(N[C@@H](CCCNC1CCCc2cccnc21)C(=O)NCc1cccc2ccccc12)c1ccc(CNCc2ncc[nH]2)c2ccccc12 (stereo partly drawn) [Compound No. 41, (2S)-2-(4-((N-imidazol-2-ylmethyl)aminomethyl)naphthoylamino)-5-(5,6,7,8-tetrahydroquinolin-8-ylamino)valerate 1-naphthalenemethylamide] | 97.9% | 0/3 | – | – | – | –
5 | C[C@H](NC(=O)[C@H](CCCN=C(N)N)NC(=O)c1ccc(CNCc2ccccn2)cc1)c1cccc2ccccc12 [Compound No. 86, N^α-(4-(N-2-picolylaminomethyl)benzoyl)-L-arginine(1′S)-1′-(1-naphthyl)ethylamide] | 91.4% | 0/3 | tended to inhibit a chronological increase | no influence was found | tended to inhibit a chronological increase | significantly inhibited
6 | O=C(N[C@@H](CCCNC1CCCc2cccnc21)C(=O)NCCc1c[nH]c2ccccc12)c1ccc(CNCc2ccccn2)c2ccccc12 (stereo partly drawn) [Compound No. 92, (2S)-2-(4-(N-2-picolylaminomethyl)naphthoyl)amino-5-(5,6,7,8-tetrahydroquinolin-8-yl)amino valerate 2-(3-indolyl)ethylamide] | – | 0/3 | – | – | – | –
7 | C[C@H](NC(=O)[C@H](CCCNC1CCCc2cccnc21)NC(=O)c1ccc(CNCc2ncc[nH]2)c2ccccc12)c1cccc2ccccc12 (some centres unmarked) [Compound No. 57] | 97.8% | 0/3 | – | – | – | –
8 | O=C(N[C@@H](CCCNC1CCCc2cccnc21)C(=O)NCc1cccc2ccccc12)c1ccc(CNCc2ccccn2)cc1 (stereo partly drawn) [Compound No. 65, (2S)-2-(4-(N-2-picolylaminomethyl)benzoylamino)-5-((5,6,7,8-tetrahydroquinolin-8-yl)amino)valerate 1-naphthalenemethylamide] | 75.1% | 0/3 | – | – | – | –
9 | C[C@H](NC(=O)[C@H](CCCNC(=N)N)NC(=O)c1ccc(CNCc2ncc[nH]2)c2ccccc12)c1cccc2ccccc12 [Compound No. 49, N^α-(4-(imidazol-2-ylmethyl)aminomethylnaphthoyl)-L-arginine (1′S)-(1′-(1-naphthyl)ethyl)amide] | 97.8% | 0/3 | – | – | – | –
10 | C[C@H](NC(=O)[C@H](CCCNC1CCCc2cccnc21)NC(=O)c1ccc(CNCc2nccn2C)cc1)c1cccc2ccccc12 (some centres unmarked) [Compound No. 107] | 96.5% | 0/3 | – | – | – | –
11 | C[C@H](NC(=O)[C@H](CCCNC(=N)N)NC(=O)c1ccc(CNCc2nccn2C)c2ccccc12)c1cccc2ccccc12 [Compound No. 97, N^α-(4-((N-(1-methylimidazol-2-ylmethyl)amino)methyl)naphthalene-1-carbonyl)-L-arginine(1′S)-1′-(1-naphthyl)ethylamide] | 100.0% | 0/3 | – | – | – | –
12 | O=C(N[C@@H](CCCNC1CCCc2cccnc21)C(=O)NCc1cccc2ccccc12)c1ccc(CNCc2ncc[nH]2)cc1 (stereo partly drawn) [Compound No. 39, (2S)-2-(4-((N-imidazol-2-ylmethyl)aminomethyl)benzoylamino)-5-(5,6,7,8-tetrahydroquinolin-8-ylamino)valerate 1-naphthalenemethylamide] | – | 0/3 | – | – | – | –
